Test results: publication PMC6507131, “Evaluation of the novel liver micronucleus assay using formalin-fixed tissues” (Genes and Environment, 2019)
Entries after “also recorded” stand apart in the source; their conditions may differ. Where a name gives a salt, the structure may show the parent alone.

Tests used:
hepatocytes (liver) [1] = conditions: rat, in vivo, cited from earlier work; for RDLMN test result (liver micronucleus induction), collagenase digestion method: po
[2] = tested on: hepatocytes of formalin-fixed liver tissues; conditions: rat, in vivo; for RDLMN test result (liver micronucleus induction), formalin-fixed method: po
liver [3] = conditions: in vivo; cited from earlier work
hepatocytes (liver) [4] = assay: Repeated-dose liver micronucleus (RDLMN) assay, collagenase digestion method; assay type: in vivo, rat; conditions: comparison between the two methods
liver [5] = tested on: liver; set-up: method as in PMID 25892619, PMID 25892626; conditions: previous study; cited from earlier work
bone marrow = tested on: bone marrow; set-up: method as in PMID 9707102; conditions: cited from earlier work
[6] = set-up: method as in PMID 15979392; conditions: cited from earlier work

Compound	RDLMN test result (liver micronucleus induction), collagenase digestion method (hepatocytes (liver) [1])	RDLMN test result (liver micronucleus induction), formalin-fixed method [2]	Hepatocarcinogen / non-hepatocarcinogen classification (liver [3])	also measured
CC(=O)Nc1ccc2c(c1)Cc1ccccc1-2 [2-AAF, 2-Acetylaminofluorene]	positive	positive	Hepatocarcinogen	–
CC(C)[N+](=O)[O-] [2-NP, 2-Nitropropane]	positive	positive	–	–
CCOC(=O)C(C)(C)Oc1ccc(Cl)cc1 [CFB, Clofibrate]	–	–	Hepatocarcinogen	–
O.O=P1(N(CCCl)CCCl)NCCCO1 (stereo not shown) [CP, Cyclophosphamide H2O]	negative	negative	Non-hepatocarcinogen	–
CN(C)c1ccc(N=Nc2ccccc2)cc1 [DAB, p-Dimethylaminoazobenzene]	positive	positive	Hepatocarcinogen	–
CN(C)N=O [DMN, Dimethylnitrosoamine]	positive	positive	Hepatocarcinogen	Frequency of MNHEPs by the formalin-fixed method compared with the collagenase digestion method [2]: Relatively higher frequencies of MNHEPs
C[C@H]1C(=O)O[C@@H]2CCN3CC=C(COC(=O)[C@](C)(O)[C@]1(C)O)[C@H]23 [MCT, Monocrotaline]	positive	positive	Hepatocarcinogen	–
COS(C)(=O)=O [MMS, Methyl methanesulfonate]	positive	positive	Non-hepatocarcinogen	–
CN(C)CCN(Cc1cccs1)c1ccccn1 [MP, Methapyrilene HCl]	–	–	Hepatocarcinogen	–
CCCN(CCC)N=O [NDPA, N-Nitrosodipropylamine]	positive	positive	Hepatocarcinogen	Frequency of MNHEPs by the formalin-fixed method compared with the collagenase digestion method [2]: Relatively higher frequencies of MNHEPs
O=NN1CCOCC1 [NMOR, N-Nitrosomorpholine]	positive	positive	Hepatocarcinogen	–
O=NN1CCCC1 [NPYR, N-Nitrosopyrrolidine]	–	–	Hepatocarcinogen	Micronucleus induction by the collagenase digestion method compared with the formalin-fixed method (hepatocytes (liver) [4]): the same trend; also recorded: higher micronucleus induction
c1ccc2ncccc2c1 [QUN, Quinoline]	positive	positive	–	–
Oc1ccc2ccccc2c1N=Nc1ccccc1 [Sudan I, Sudan I (C.I.solvent yellow 14)]	negative	positive	Hepatocarcinogen	Dose dependence of liver micronucleus induction, collagenase digestion method (hepatocytes (liver) [1]): a tendency, though slight, toward a dose-dependent increase; Histopathological finding in the liver (liver [5]): remarkable HEP hypertrophy; short-term bone marrow micronucleus assay result (bone marrow): positive; in vitro chromosome aberration test result [6]: negative; liver carcinogenicity (liver [3]): positive
CC(=N)S [TAA, Thioacetamide]	negative	positive	Hepatocarcinogen	Frequency of MNHEPs by the formalin-fixed method compared with the collagenase digestion method [2]: comparable
